Experimental data reported in patent US20240199677A1, “GLYCOSYLTRANSFERASE INHIBITORS” (CALIFORNIA INSTITUTE OF TECHNOLOGY, priority 2018, published 2024).

What was measured:
[1] = Cytotoxicity MTT assay, Vero cells; assay type: cell-based, monkey; conditions: monkey
Experimental: (§1) Cytotoxicity Assays. Cytotoxicity assays were performed using Vero monkey kidney (ATCC CCL-81) and HepG2 human hepatoblastoma cell (ATCC HB-8065) lines. Vero or HepG2 cells were cultured in 75 cm^2 flasks and transferred to 96-well cell culture plates using ATCC-formulated Eagle's minimum essential medium containing 10% FBS, penicillin, and streptomycin. Serially diluted aliquots of each test compound at concentrations ranging from 0.78-200 μg/mL were added to the cells. […] The plates were incubated and cytotoxic effects were determined via the MTT assay.
(§2) Selected molecules were tested for cytotoxicity (IC50) in cancer and healthy cells via a MTT colorimetric assay.
(§3) Cytotoxicity Assays. For Vero cells: Vero cell was cultured in Complete eagle's minimum essential growth medium (EMEM) containing L-glutamine, sodium pyruvate, minimum essential amino acids, penicillin-streptomycin and 10% fetal bovine serum. Inoculating number of cells were 400,000 cells/mL and a final 40,000 cells/well. After 72 h of exposure of molecules to this cell line at concentrations ranging from 0.78 to 200 μg/mL, the culture medium was changed to complete EMEM without phenol red before addition of yellow tetrazolium dye; MTT. Viability was assessed on the basis of cellular conversion of MTT into a purple formazan product. The absorbance of the colored formazan product was measured at 570 nm by BioTek Synergy HT Spectrophotometer. Linearity of the MTT response to the cell number was determined.

Vero cells = assay: Cytotoxicity MTT assay, Vero cells; assay type: cell-based, monkey; conditions: Primates, Vero; Table 2; read-out: Vero cells IC50
Experimental: as §1, §2, §3

KB = assay: Cytotoxicity MTT assay, KB; assay type: cell-based; conditions: Homo sapiens, KB; read-out: Cytotoxicity IC50 KB
Experimental: as §2
Each cell was cultured in recommended medium by ATCC, and the IC50 data were obtained with each cell line.

AsPc-1 cells = assay: Scratch (wound healing) assay, AsPc-1; assay type: cell-based; conditions: FIG. 9, versus Gemcitabine

NC[C@H]1O[C@@H](O[C@H]([C@H]2O[C@@H](n3ccc(=O)[nH]c3=O)[C@H](O)[C@@H]2O)[C@H](NCCCC(=O)NCc2ccc(N3CCC(Oc4ccc(C(F)(F)F)cc4)CC3)cc2)C(N)=O)[C@H](O)[C@@H]1O [Compound 11]
IC50 at 72 h [1]: > 65 µM | IC50 (Vero cells): 56.8 µM | IC50 (KB): 7.09 µM | AsPc-1 cell migration, scratch assay (AsPc-1 cells): less AsPc-1 cell migration than Gemcitabine
